The target in experiment [1] is T1, recombinant human catalytic domain of MMP-1 (Homo sapiens, UniProt P03956).
T1 construct: The source of enzyme in the assay was the recombinant human catalytic domain of MMP-1
T1 sequence (P03956 100-269 limits assumed): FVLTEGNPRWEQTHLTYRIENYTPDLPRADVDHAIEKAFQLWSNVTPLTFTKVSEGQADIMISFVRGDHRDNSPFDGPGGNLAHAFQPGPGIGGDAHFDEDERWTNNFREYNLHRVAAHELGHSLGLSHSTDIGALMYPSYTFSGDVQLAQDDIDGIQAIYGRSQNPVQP
The experiment in a line: In-vitro fluorescence assay of MMP-1 activity. The format is biochemical.
Procedure: A continuous assay was used in which the substrate is a synthetic peptide containing a fluorescent group (7-methoxycoumarin; Mca) that is quenched by energy transfer to a 2,4-dinitrophenyl group. […] The substrate used was Mca-PQGL-(3-[2,4-dinitrophenyl]-L-2,3-diaminopropionyl)-AR-OH (denoted as Wammp-5, custom synthesized by AnaSpec, Inc.). The assay buffer consisted of 50 mM Hepes (pH 7.4), 100 mM NaCl, 5 mM CaCI2, and 0.005% Brij-35. Each well of black polystyrene 96-well plates contained a 200 μL reaction mixture consisting of assay buffer, purified MMP (final concentration of 25 ng/ml, prepared by diluting with the assay buffer), and varied concentrations of inhibitor (prepared by serially diluting a given inhibitor in DMSO in 96-well polypropylene plate). […] The enzymatic reactions were initiated by adding the substrate to a final concentration of 20 μM, and mixing 10 times with a pipette. The final DMSO concentration in the assay was 6.0%.
Plots of the inhibitor concentration vs. the percent inhibition were fit to the following equation: y=(a−d)/[1+(x/c)^b]+d, a general sigmoidal curve with Hill slope, a to d. x is the inhibitor concentration under test. y is the percent inhibition. a is the limiting response as x approaches zero. As x increases without bound, y tends toward its limit d. c is the inflection point (IC50) for the curve. That is, y is halfway between the lower and upper asymptotes when x=c. b is the slope factor or Hill coefficient.

Experiment [2] deals with LPS-induced TNF-α secretion in human whole blood. The experiment is described as follows: Human whole blood assay for LPS-induced TNF-α secretion. To be noted: LPS 100 ng/ml, read-out: TNF Secretion HWB IC50. The format is cell-based. A digest of the protocol: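 Fresh blood from healthy volunteers pre-incubated 1 h at 37° C with compound (final DMSO <0.2%), then stimulated with 100 ng/ml LPS for 4 h or overnight at 37° C with rotation. Supernatant TNF-α measured by ELISA; percent inhibition and IC50 derived by curve fitting.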

The target of the next experiment is T2, recombinant human MMP-2 (Homo sapiens, UniProt P08253).
T2 sequence (P08253 110-660): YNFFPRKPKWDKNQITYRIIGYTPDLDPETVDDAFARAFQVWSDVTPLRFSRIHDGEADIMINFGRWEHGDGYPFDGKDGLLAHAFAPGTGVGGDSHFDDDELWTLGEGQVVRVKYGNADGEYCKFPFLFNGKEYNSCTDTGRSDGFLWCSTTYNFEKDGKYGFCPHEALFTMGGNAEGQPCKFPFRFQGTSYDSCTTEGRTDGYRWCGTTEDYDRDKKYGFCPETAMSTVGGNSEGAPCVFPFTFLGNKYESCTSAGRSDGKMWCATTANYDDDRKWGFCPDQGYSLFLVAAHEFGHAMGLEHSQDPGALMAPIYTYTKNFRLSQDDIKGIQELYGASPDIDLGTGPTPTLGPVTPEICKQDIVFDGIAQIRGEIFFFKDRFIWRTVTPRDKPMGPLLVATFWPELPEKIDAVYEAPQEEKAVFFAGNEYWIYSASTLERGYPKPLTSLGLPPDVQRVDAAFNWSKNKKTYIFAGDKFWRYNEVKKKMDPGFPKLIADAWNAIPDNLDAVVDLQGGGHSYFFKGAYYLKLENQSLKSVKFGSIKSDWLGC
The experiment is described as follows: In-vitro fluorescence assay of MMP-2 activity. In kind it is biochemical.

Experiment [3] relates to TNF-α secretion in Raw 264.7 cells. The experiment in a line: Cell-based assay for inhibition of TNF-α secretion in Raw cells. To be noted: Mus musculus, RAW264.7, LPS 100 ng/ml, 4 hr. A digest of the protocol:
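Confluent Raw 264.7 cells were seeded overnight, refed, and pre-incubated 1 hr with compound (0.2% final DMSO), then stimulated with LPS at 100 ng/ml final for 4 hr at 37° C. Supernatant TNF-α measured by ELISA; % inhibition and IC50 by curve fitting.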

The target in a further experiment is MMP-13 (Homo sapiens, UniProt P45452). The experiment is described as follows: In-vitro fluorescence assay of MMP-13 activity. In kind it is biochemical. The method, then:
See Knight, C. […] […].
The method was essentially the same as for the determination of MMP-1 activity, described above, except that the final concentration of purified MMP in the assay was 0.5 nM, prepared by diluting with the assay buffer.

The target in experiment [4] is T3, TACE (catalytic domain of the recombinant TACE protein) (Homo sapiens, UniProt P78536).
T3 construct: The catalytic domain of the recombinant TACE protein was expressed and purified; made in house
The experiment is described as follows: TACE FRET assay using TACE Cat. To be noted: FRET, pro-TNF-α substrate peptide; read-out: TACE IC50. The format is biochemical. The procedure, abridged: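 Recombinant TACE catalytic domain (1 ug/ml) pre-incubated 10 min at room temperature with inhibitor in 50 mM Tris-HCl pH 7.4, 25 mM NaCl, 4% glycerol, 0.005% Brij 35; Abz/Dpa pro-TNF-α peptide substrate added, fluorescence (Ex 320/Em 420) followed 10 min; IC50 from initial rates by Hill fit.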

Experiment [5] has as its target T4, recombinant human catalytic domain of MMP-14 (Homo sapiens, UniProt P50281).
T4 construct: 20 kDa; purchased Chemicon International, Inc. CC1041
The experiment is described as follows: In-vitro fluorescence assay of MMP-14 activity. In kind it is biochemical. The protocol:
The results were analyzed as described for MMP-13 activity, above.

Like-named read-outs stand apart in the source and are kept apart here. Where only a bound is given, the exact number is not on record here.

T3 sequence (P78536 223-474 limits assumed): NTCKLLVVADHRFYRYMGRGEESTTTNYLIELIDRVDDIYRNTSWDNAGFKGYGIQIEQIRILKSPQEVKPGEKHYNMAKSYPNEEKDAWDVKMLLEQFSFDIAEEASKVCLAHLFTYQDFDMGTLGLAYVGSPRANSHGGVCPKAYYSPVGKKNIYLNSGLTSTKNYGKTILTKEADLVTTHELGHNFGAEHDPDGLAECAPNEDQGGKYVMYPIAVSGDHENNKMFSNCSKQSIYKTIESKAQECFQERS

As usually defined, the IC50 is the concentration needed to halve the response being measured. With `Cc1cc(COc2ccc(S(=O)(=O)N[C@@H]3[C@H]4CC[C@H](C4)[C@@H]3C(=O)NO)cc2)c2ccccc2n1` (relative stereo) [Example 4, exo-N-Hydroxy-3-[({4-[(2-methylquinolin-4-yl)methoxy]phenyl}sulfonyl)amino]bicyclo[2.2.1]heptane-2-carboxamide], the IC50 is more than 16.7 µM in experiment [1]; 1.6 µM in experiment [2] (Homo sapiens); more than 16.7 µM at recombinant human MMP-2; 0.018 µM in experiment [3]; 6.38 µM at MMP-13; less than 0.0006 µM in experiment [4]. Moreover, in experiment [5], the IC50 is more than 16.7 µM.
For the compound `Cc1cc(COc2ccc(S(=O)(=O)N(C)C3C4CCC(C4)C3C(=O)NO)cc2)c2ccccc2n1` (single isomer, unassigned) [Example 1b, exo-N-hydroxy-3-[methyl({4-[(2-methylquinolin-4-yl)methoxy]phenyl}sulfonyl)amino]bicyclo[2.2.1]heptane-2-carboxamide], the IC50 in experiment [1] was more than 16.7 µM; in experiment [2], 14 µM; at recombinant human MMP-2 it was more than 16.7 µM; in experiment [3] it was 0.25 µM; against MMP-13, more than 16.7 µM; in experiment [4] it was 0.043 µM. Also, the IC50 in experiment [5] was more than 16.7 µM.

(Values after patent US7595327B2, “Beta-sulfonamide hydroxamic acid inhibitors of tace/matrix metalloproteinase” (priority 2005, dated 2009).)
